According to US20260034112A1, “MULTI-CYCLIC IRAK1 AND IRAK4 INHIBITING COMPOUNDS AND USES THEREOF” (CHILDREN'S HOSPITAL MEDICAL CENTER, priority 2022, published 2026):

System: THP1 cells
Format: cell-based, human

Which “Log(FC) of gene KCNH2” value does the source give for `Cc1cc(-c2nc(C(=O)Nc3cc4oc(N5CCOCC5)nc4nc3N3CC[C@@H](O)C3)co2)ccn1` [CA-4948, emavusertib] here?
The value was −0.6125.

What about the “Log(FC) of gene ABCC2” value (CA-4948 vs DMSO in THP1 cells) of the same compound?
Its value is 0.6855.

What about the “Log(FC) of gene AC016629.8” value (CA-4948 vs DMSO in THP1 cells) of the same compound?
Its value is 0.586.

And the “Log(FC) of gene AC093391.2” value (CA-4948 vs DMSO in THP1 cells)?
Its value is 0.7835.

And the “Log(FC) of gene ADAM8” value (CA-4948 vs DMSO in THP1 cells)?
The value was 0.6886.

What about the “Log(FC) of gene ADAM19” value (CA-4948 vs DMSO in THP1 cells) of the same compound?
The value was 0.5984.

And the “Log(FC) of gene ADCY4” value (CA-4948 vs DMSO in THP1 cells)?
Its value is 1.023.

And the “Log(FC) of gene AMH” value (CA-4948 vs DMSO in THP1 cells)?
The value was 0.7789.

What about the “Log(FC) of gene ANKFN1” value (CA-4948 vs DMSO in THP1 cells) of the same compound?
The value was 0.6129.

And the “Log(FC) of gene ANKRD34A” value (CA-4948 vs DMSO in THP1 cells)?
The value was 0.9288.

And the “Log(FC) of gene AP3B2” value (CA-4948 vs DMSO in THP1 cells)?
Its value is 0.7192.

And the “Log(FC) of gene AP000330.8” value (CA-4948 vs DMSO in THP1 cells)?
The value was 0.7147.

And the “Log(FC) of gene APOE” value (CA-4948 vs DMSO in THP1 cells)?
The value was 0.6335.

And the “Log(FC) of gene APOLD1” value (CA-4948 vs DMSO in THP1 cells)?
Its value is 0.7365.

What about the “Log(FC) of gene ARID3C” value (CA-4948 vs DMSO in THP1 cells) of the same compound?
Its value is 0.8751.

What about the “Log(FC) of gene ARL17B” value (CA-4948 vs DMSO in THP1 cells) of the same compound?
Its value is 0.6318.

And the “Log(FC) of gene ARTN” value (CA-4948 vs DMSO in THP1 cells)?
The value was 0.6881.

And the “Log(FC) of gene ASIC3” value (CA-4948 vs DMSO in THP1 cells)?
The value was 1.28.

What about the “Log(FC) of gene ATP2B3” value (CA-4948 vs DMSO in THP1 cells) of the same compound?
The value was 0.7931.

What about the “Log(FC) of gene AURKB” value (CA-4948 vs DMSO in THP1 cells) of the same compound?
The value was 0.6324.

And the “Log(FC) of gene BRICD5” value (CA-4948 vs DMSO in THP1 cells)?
The value was 0.6636.

What about the “Log(FC) of gene BTBD19” value (CA-4948 vs DMSO in THP1 cells) of the same compound?
The value was 0.6939.

What about the “Log(FC) of gene BVES-AS1” value (CA-4948 vs DMSO in THP1 cells) of the same compound?
Its value is 0.5945.

And the “Log(FC) of gene BZRAP1” value (CA-4948 vs DMSO in THP1 cells)?
The value was 1.334.

What about the “Log(FC) of gene C1orf51” value (CA-4948 vs DMSO in THP1 cells) of the same compound?
The value was 1.033.

And the “Log(FC) of gene C2orf48” value (CA-4948 vs DMSO in THP1 cells)?
Its value is 0.606.

And the “Log(FC) of gene C5orf56” value (CA-4948 vs DMSO in THP1 cells)?
Its value is 0.7488.

And the “Log(FC) of gene C9orf37” value (CA-4948 vs DMSO in THP1 cells)?
The value was 0.6108.

And the “Log(FC) of gene C15orf62” value (CA-4948 vs DMSO in THP1 cells)?
The value was 0.8673.

What about the “Log(FC) of gene C16orf86” value (CA-4948 vs DMSO in THP1 cells) of the same compound?
Its value is 0.6351.

What about the “Log(FC) of gene CACTIN-AS1” value (CA-4948 vs DMSO in THP1 cells) of the same compound?
The value was 0.7321.

What about the “Log(FC) of gene CATSPER3” value (CA-4948 vs DMSO in THP1 cells) of the same compound?
Its value is 0.6152.

And the “Log(FC) of gene CCDC103” value (CA-4948 vs DMSO in THP1 cells)?
The value was −0.6115.

What about the “Log(FC) of gene CCDC109B” value (CA-4948 vs DMSO in THP1 cells) of the same compound?
The value was 0.8991.

And the “Log(FC) of gene CCDC154” value (CA-4948 vs DMSO in THP1 cells)?
The value was 0.7952.

What about the “Log(FC) of gene CCDC155” value (CA-4948 vs DMSO in THP1 cells) of the same compound?
Its value is 0.6645.

What about the “Log(FC) of gene CCDC183” value (CA-4948 vs DMSO in THP1 cells) of the same compound?
Its value is 0.9658.

And the “Log(FC) of gene CD101” value (CA-4948 vs DMSO in THP1 cells)?
Its value is 0.5897.

What about the “Log(FC) of gene CD163” value (CA-4948 vs DMSO in THP1 cells) of the same compound?
Its value is −0.5952.

What about the “Log(FC) of gene CD302” value (CA-4948 vs DMSO in THP1 cells) of the same compound?
The value was 0.6021.

And the “Log(FC) of gene CDC42EP2” value (CA-4948 vs DMSO in THP1 cells)?
Its value is 0.6518.

What about the “Log(FC) of gene CEACAM19” value (CA-4948 vs DMSO in THP1 cells) of the same compound?
Its value is 1.259.

What about the “Log(FC) of gene CGN” value (CA-4948 vs DMSO in THP1 cells) of the same compound?
Its value is 0.9021.

And the “Log(FC) of gene CHN2” value (CA-4948 vs DMSO in THP1 cells)?
The value was 0.8531.

What about the “Log(FC) of gene CHRFAM7A” value (CA-4948 vs DMSO in THP1 cells) of the same compound?
The value was −0.9429.

And the “Log(FC) of gene CILP2” value (CA-4948 vs DMSO in THP1 cells)?
The value was 0.8989.

And the “Log(FC) of gene CLDN15” value (CA-4948 vs DMSO in THP1 cells)?
The value was 0.6387.

And the “Log(FC) of gene CLEC10A” value (CA-4948 vs DMSO in THP1 cells)?
The value was 0.6157.

And the “Log(FC) of gene CLEC12B” value (CA-4948 vs DMSO in THP1 cells)?
The value was 0.7555.

And the “Log(FC) of gene CLK1” value (CA-4948 vs DMSO in THP1 cells)?
Its value is 1.08.

And the “Log(FC) of gene CLK3” value (CA-4948 vs DMSO in THP1 cells)?
The value was 0.9323.

What about the “Log(FC) of gene CLK4” value (CA-4948 vs DMSO in THP1 cells) of the same compound?
The value was 0.8127.

What about the “Log(FC) of gene CMTM1” value (CA-4948 vs DMSO in THP1 cells) of the same compound?
Its value is 1.158.

What about the “Log(FC) of gene CNIH2” value (CA-4948 vs DMSO in THP1 cells) of the same compound?
The value was 0.9526.

What about the “Log(FC) of gene CNKSR1” value (CA-4948 vs DMSO in THP1 cells) of the same compound?
The value was 0.9226.

What about the “Log(FC) of gene COL7A1” value (CA-4948 vs DMSO in THP1 cells) of the same compound?
The value was 1.605.

And the “Log(FC) of gene CPNE5” value (CA-4948 vs DMSO in THP1 cells)?
The value was 0.7008.

What about the “Log(FC) of gene CPT1B” value (CA-4948 vs DMSO in THP1 cells) of the same compound?
The value was 1.318.

And the “Log(FC) of gene CRABP2” value (CA-4948 vs DMSO in THP1 cells)?
Its value is 3.095.

What about the “Log(FC) of gene CTRL” value (CA-4948 vs DMSO in THP1 cells) of the same compound?
The value was 1.027.

What about the “Log(FC) of gene DCAF4L1” value (CA-4948 vs DMSO in THP1 cells) of the same compound?
Its value is 1.097.

And the “Log(FC) of gene DCAKD” value (CA-4948 vs DMSO in THP1 cells)?
Its value is 0.6901.

What about the “Log(FC) of gene DCST2” value (CA-4948 vs DMSO in THP1 cells) of the same compound?
The value was 1.278.

What about the “Log(FC) of gene DDB2” value (CA-4948 vs DMSO in THP1 cells) of the same compound?
The value was 0.5883.

And the “Log(FC) of gene DEGS2” value (CA-4948 vs DMSO in THP1 cells)?
The value was 0.6503.

What about the “Log(FC) of gene DMPK” value (CA-4948 vs DMSO in THP1 cells) of the same compound?
Its value is 0.6345.

What about the “Log(FC) of gene DNAH1” value (CA-4948 vs DMSO in THP1 cells) of the same compound?
Its value is 0.6015.

And the “Log(FC) of gene DNAJC27-AS1” value (CA-4948 vs DMSO in THP1 cells)?
The value was 0.6304.

What about the “Log(FC) of gene DNASE1L2” value (CA-4948 vs DMSO in THP1 cells) of the same compound?
Its value is 1.008.

What about the “Log(FC) of gene DND1” value (CA-4948 vs DMSO in THP1 cells) of the same compound?
Its value is 1.389.

And the “Log(FC) of gene DNHD1” value (CA-4948 vs DMSO in THP1 cells)?
The value was 1.083.

And the “Log(FC) of gene DRP2” value (CA-4948 vs DMSO in THP1 cells)?
Its value is 0.9019.

What about the “Log(FC) of gene EFCAB12” value (CA-4948 vs DMSO in THP1 cells) of the same compound?
Its value is 1.697.

What about the “Log(FC) of gene EGFR” value (CA-4948 vs DMSO in THP1 cells) of the same compound?
The value was 0.882.

And the “Log(FC) of gene EIF3CL” value (CA-4948 vs DMSO in THP1 cells)?
Its value is 0.7466.

And the “Log(FC) of gene ELMO3” value (CA-4948 vs DMSO in THP1 cells)?
Its value is 0.7963.

What about the “Log(FC) of gene ENHO” value (CA-4948 vs DMSO in THP1 cells) of the same compound?
Its value is 0.7452.
